Key:
[1] = system: human antibodies in human serum samples; assay: EIA reactivities of three human serum samples with deletion and alanine substitution analogues of SEQ ID NO: 1 (Table 6); type: binding; details: positive = more than 50% of the reactivity of the original peptide
Experimental: (§1) The EIAs used to identify which peptides interacted with human sera followed protocols known in the art. (See Zhang et al., J Gen Virol, 78:2735-2746 (1997), herein expressly incorporated by reference in its entirety). Briefly, microplates (Nunc, Denmark) were coated for 48 hours with synthetic peptides at a concentration of 10 μg/ml in 0.05M sodium carbonate buffer pH 9.6. After blocking for 2 hours at room temperature with phosphate buffered saline containing 1% bovine serum albumin, 2% goat serum and 0.05% Tween 20 (dilution buffer) the plates were incubated with human sera diluted 1:100 in dilution buffer. Bound human IgG was detected by incubation with anti-human IgG antibodies conjugated to alkaline phosphatase (Sigma Chemicals, St. Louis, Mo.). The plates were developed by the addition of […] (Sigma) and the optical densities were determined at 405 nm.
The reactivity to the TATTTTYAYPGTNRPPV (SEQ ID NO: 1) peptide was further characterized by mapping the reactivity of deletion and substitution peptide analogues.

[2] = system: human IgG antibodies in human serum samples; assay: EIA of human antibody reactivities to overlapping synthetic peptides of TTV ORF1 and ORF2 (Tables 2 and 3); type: binding; details: for optical density (OD) at 405 nm: serum diluted 1:100, OD over 0.500 considered positive; for human reactivity to peptide (reactive peptides within ORF1): tested human sera, EIA; for optical density (OD) at 405 nm, EIA reactivity of human serum sample 1: serum sample 1, negative for TTV DNA by PCR; for optical density (OD) at 405 nm, EIA reactivity of human serum sample 1 / optical density (OD) at 405 nm, EIA reactivity of human serum sample 2 / optical density (OD) at 405 nm, EIA reactivity of human serum sample 3 / optical density (OD) at 405 nm, EIA reactivity of human serum sample 4 / optical density (OD) at 405 nm, EIA reactivity of human serum sample 5 / optical density (OD) at 405 nm, EIA reactivity of human serum sample 6 / optical density (OD) at 405 nm, EIA reactivity of human serum sample 7 / optical density (OD) at 405 nm, EIA reactivity of human serum sample 9 / optical density (OD) at 405 nm, EIA reactivity of human serum sample 11 / optical density (OD) at 405 nm, EIA reactivity of human serum sample 18 / optical density (OD) at 405 nm, EIA reactivity of human serum sample 36 / optical density (OD) at 405 nm, EIA reactivity of human serum sample 48 / optical density (OD) at 405 nm, EIA reactivity of human serum sample 98 / optical density (OD) at 405 nm, EIA reactivity of human serum sample 110 / optical density (OD) at 405 nm, EIA reactivity of human serum sample 155 / optical density (OD) at 405 nm, EIA reactivity of human serum sample 157: serum 1:100, peptide coated 10 μg/ml, OD over 0.500 positive; for optical density (OD) at 405 nm, EIA reactivity of human serum sample 2: serum sample 2, negative for TTV DNA by PCR; for optical density (OD) at 405 nm, EIA reactivity of human serum sample 3: serum sample 3, negative for TTV DNA by PCR; for optical density (OD) at 405 nm, EIA reactivity of human serum sample 4: serum sample 4, negative for TTV DNA by PCR; for optical density (OD) at 405 nm, EIA reactivity of human serum sample 5: serum sample 5, negative for TTV DNA by PCR; for optical density (OD) at 405 nm, EIA reactivity of human serum sample 6: serum sample 6, negative for TTV DNA by PCR; for optical density (OD) at 405 nm, EIA reactivity of human serum sample 7: serum sample 7, negative for TTV DNA by PCR; for optical density (OD) at 405 nm, EIA reactivity of human serum sample 9: serum sample 9, positive for TTV DNA by PCR; for optical density (OD) at 405 nm, EIA reactivity of human serum sample 11: serum sample 11, negative for TTV DNA by PCR; for optical density (OD) at 405 nm, EIA reactivity of human serum sample 18: serum sample 18, positive for TTV DNA by PCR; for optical density (OD) at 405 nm, EIA reactivity of human serum sample 36: serum sample 36, positive for TTV DNA by PCR; for optical density (OD) at 405 nm, EIA reactivity of human serum sample 48: serum sample 48, positive for TTV DNA by PCR; for optical density (OD) at 405 nm, EIA reactivity of human serum sample 98: serum sample 98, positive for TTV DNA by PCR; for optical density (OD) at 405 nm, EIA reactivity of human serum sample 110: serum sample 110, positive for TTV DNA by PCR; for optical density (OD) at 405 nm, EIA reactivity of human serum sample 155: serum sample 155, positive for TTV DNA by PCR; for optical density (OD) at 405 nm, EIA reactivity of human serum sample 157: serum sample 157, positive for TTV DNA by PCR
Source text: Overlapping peptides (18 amino acids in length containing an 8 amino acid overlap) corresponding to regions of the ORFI and ORF2 of TTV (TABLE 1; Genebank accession no AB008394) were produced by a multiple peptide synthesizer (Syro, Syntex, Germany) using standard Fmoc chemistry (Sallberg et al., Immunology Letters, 30:59 68 (1991), herein expressly incorporated by reference in its entirety).
as §1

[3] = human serum sample 1, negative for TTV DNA by PCR
[4] = human serum sample 2, negative for TTV DNA by PCR
[5] = human serum sample 3, negative for TTV DNA by PCR
[6] = human serum sample 4, negative for TTV DNA by PCR
[7] = human serum sample 5, negative for TTV DNA by PCR
[8] = human serum sample 6, negative for TTV DNA by PCR
[9] = human serum sample 7, negative for TTV DNA by PCR
[10] = human serum sample 9, positive for TTV DNA by PCR
[11] = human serum sample 11, negative for TTV DNA by PCR
[12] = human serum sample 18, positive for TTV DNA by PCR
[13] = human serum sample 36, positive for TTV DNA by PCR
[14] = human serum sample 48, positive for TTV DNA by PCR
[15] = human serum sample 98, positive for TTV DNA by PCR
[16] = human serum sample 110, positive for TTV DNA by PCR
[17] = human serum sample 155, positive for TTV DNA by PCR
[18] = human serum sample 157, positive for TTV DNA by PCR

Row | Substance | OD at 405 nm, reactivity of human serum sample P4 [1] | OD at 405 nm, reactivity of human serum sample P7 [1] | OD at 405 nm, reactivity of human serum sample P36 [1] | optical density (OD) at 405 nm [2, 3] | optical density (OD) at 405 nm [2, 4] | optical density (OD) at 405 nm [2, 5] | optical density (OD) at 405 nm [2, 6] | optical density (OD) at 405 nm [2, 7] | optical density (OD) at 405 nm [2, 8] | optical density (OD) at 405 nm [2, 9] | optical density (OD) at 405 nm [2, 10] | optical density (OD) at 405 nm [2, 11] | optical density (OD) at 405 nm [2, 12] | optical density (OD) at 405 nm [2, 13] | optical density (OD) at 405 nm [2, 14] | optical density (OD) at 405 nm [2, 15] | optical density (OD) at 405 nm [2, 16] | optical density (OD) at 405 nm [2, 17] | optical density (OD) at 405 nm [2, 18] | human reactivity to peptide (reactive peptides within ORF1) [2] | further results
1 | GLYSSIWLSPGRSYFET (Peptide Immunogen) [compound 42, overlapping synthetic peptide of TTV ORF1] | 0.135 OD | 0.242 OD | 0.076 OD | 0.08 OD | 0.11 OD | 0.09 OD | 0.10 OD | 0.17 OD | 0.23 OD | 0.11 OD | 0.27 OD | 0.19 OD | 0.12 OD | 0.10 OD | 0.09 OD | 0.16 OD | 0.42 OD | 0.35 OD | 1.24 OD | Reactive | –
2 | peptide 1: overlapping synthetic peptide of TTV ORF1 (TATTTTYAYPGTNRPPV) | 0.839 OD | 1.845 OD | 0.825 OD | 0.00 OD | 0.00 OD | 0.00 OD | 0.00 OD | 0.00 OD | 0.00 OD | 0.00 OD | 0.00 OD | 0.00 OD | 0.00 OD | 0.00 OD | 0.00 OD | 0.00 OD | 0.00 OD | 0.00 OD | 0.00 OD | – | optical density (OD) at 405 nm, EIA reactivity of human serum sample 1 [2]: 0.09 OD; optical density (OD) at 405 nm, EIA reactivity of human serum sample 2 [2]: 0.10 OD; optical density (OD) at 405 nm, EIA reactivity of human serum sample 3 [2]: 0.13 OD; optical density (OD) at 405 nm, EIA reactivity of human serum sample 4 [2]: 0.11 OD; optical density (OD) at 405 nm, EIA reactivity of human serum sample 5 [2]: 0.10 OD; optical density (OD) at 405 nm, EIA reactivity of human serum sample 6 [2]: 0.16 OD; optical density (OD) at 405 nm, EIA reactivity of human serum sample 7 [2]: 0.09 OD; optical density (OD) at 405 nm, EIA reactivity of human serum sample 9 [2]: 0.08 OD; optical density (OD) at 405 nm, EIA reactivity of human serum sample 11 [2]: 0.12 OD; optical density (OD) at 405 nm, EIA reactivity of human serum sample 18 [2]: 0.08 OD; optical density (OD) at 405 nm, EIA reactivity of human serum sample 36 [2]: 0.09 OD; optical density (OD) at 405 nm, EIA reactivity of human serum sample 48 [2]: 0.08 OD; optical density (OD) at 405 nm, EIA reactivity of human serum sample 98 [2]: 0.08 OD; optical density (OD) at 405 nm, EIA reactivity of human serum sample 110 [2]: 0.08 OD; optical density (OD) at 405 nm, EIA reactivity of human serum sample 155 [2]: 0.14 OD; optical density (OD) at 405 nm, EIA reactivity of human serum sample 157 [2]: 0.14 OD
3 | 2: overlapping synthetic peptide of TTV ORF1 (YAYPGTNRPPV) [compound 2] | 0.647 OD | 1.546 OD | 0.677 OD | 0.08 OD | 0.08 OD | 0.07 OD | 0.11 OD | 0.07 OD | 0.09 OD | 0.08 OD | 0.07 OD | 0.14 OD | 0.06 OD | 0.08 OD | 0.10 OD | 0.05 OD | 0.08 OD | 0.07 OD | 0.08 OD | – | optical density (OD) at 405 nm, EIA reactivity of human serum sample 1 [2]: 0.10 OD; optical density (OD) at 405 nm, EIA reactivity of human serum sample 2 [2]: 0.11 OD; optical density (OD) at 405 nm, EIA reactivity of human serum sample 3 [2]: 0.11 OD; optical density (OD) at 405 nm, EIA reactivity of human serum sample 4 [2]: 0.10 OD; optical density (OD) at 405 nm, EIA reactivity of human serum sample 5 [2]: 0.08 OD; optical density (OD) at 405 nm, EIA reactivity of human serum sample 6 [2]: 0.12 OD; optical density (OD) at 405 nm, EIA reactivity of human serum sample 7 [2]: 0.09 OD; optical density (OD) at 405 nm, EIA reactivity of human serum sample 9 [2]: 0.08 OD; optical density (OD) at 405 nm, EIA reactivity of human serum sample 11 [2]: 0.14 OD; optical density (OD) at 405 nm, EIA reactivity of human serum sample 18 [2]: 0.08 OD; optical density (OD) at 405 nm, EIA reactivity of human serum sample 36 [2]: 0.08 OD; optical density (OD) at 405 nm, EIA reactivity of human serum sample 48 [2]: 0.08 OD; optical density (OD) at 405 nm, EIA reactivity of human serum sample 98 [2]: 0.08 OD; optical density (OD) at 405 nm, EIA reactivity of human serum sample 110 [2]: 0.09 OD; optical density (OD) at 405 nm, EIA reactivity of human serum sample 155 [2]: 0.14 OD; optical density (OD) at 405 nm, EIA reactivity of human serum sample 157 [2]: 0.13 OD
4 | YTDIKYNPFTDRGEGNM (Peptide Immunogen) [compound 44, overlapping synthetic peptide of TTV ORF1] | 0.855 OD | 1.829 OD | 0.806 OD | 0.09 OD | 0.11 OD | 0.11 OD | 0.12 OD | 0.98 OD | 0.15 OD | 0.10 OD | 0.09 OD | 0.14 OD | 0.09 OD | 0.08 OD | 0.08 OD | 0.12 OD | 0.13 OD | 0.17 OD | 1.25 OD | Reactive | –
